# Results as given in US7754880B2, “Uracils having a herbicidal activity” (Isagro Ricerca S.r.l., priority 2002, dated 2010).
# How the values were obtained:
# Format in all cases: in vivo
# Conditions in all cases: dosage of 15 g/ha, fifteen days after the treatment, damage vs non-treated plants
# Abutilon theofrasti [1] = experiment: Herbicidal activity in pre-emergence
# Method: (§1) Determination of the Herbicidal Activity and Phytotoxicity in Pre-Emergence The herbicidal activity of the compounds of the invention in pre-emergence was evaluated according to the following operative procedures. The vegetable species of interest (weeds or crops) were sown in pots with an upper diameter of 10 cm, a height of 10 cm and containing sandy soil. 10 pots were used for each vegetable species. Water was added to each pot in such a quantity as to germinate the seeds. The pots were divided into two groups, each containing 5 pots for each weed or crop. After one day from the sowing, the first set of pots was treated with a hydro-acetonic dispersion containing acetone at 10% in volume, the product under evaluation at the desired concentration and Tween 20 at 0.5%. The second set was treated with a hydro-acetonic solution only, containing acetone at 10% in volume and Tween 20 at 0.5%, and was used as comparison (blank). All pots were kept under observation in a conditioned environment under the following conditions: temperature: 24° C.; relative humidity: 60%; photoperiod: 16 ore; light intensity: 10000 lux. The pots were uniformly watered in order to ensure a sufficient humidity degree for a good development of the plants.
# Amaranthus retroflexus [2] = experiment: Herbicidal activity in pre-emergence
# Method: as §1
# Chenopodium album [3] = experiment: Herbicidal activity in pre-emergence
# Method: as §1
# Convolvulus sepium [4] = experiment: Herbicidal activity in pre-emergence
# Method: as §1
# Galium aparine [5] = experiment: Herbicidal activity in pre-emergence
# Method: as §1
# Ipomea purpurea [6] = experiment: Herbicidal activity in pre-emergence
# Method: as §1
# Portulaca oleracea [7] = experiment: Herbicidal activity in pre-emergence
# Method: as §1
# Sida spinosa [8] = experiment: Herbicidal activity in pre-emergence
# Method: as §1
# Solanum nigrum [9] = experiment: Herbicidal activity in pre-emergence
# Method: as §1
# Abutilon theofrasti [10] = experiment: Herbicidal activity in post-emergence
# Method: (§2) Determination of the Herbicidal Activity and Phytotoxicity in Post-Emergence The herbicidal activity of the compounds of the invention in post-emergence was evaluated according to the following operative procedures. The vegetable species of interest (weeds or crops) were sown in pots with an upper diameter of 10 cm, a height of 10 cm and containing sandy soil. 10 pots were used for each vegetable species. Water was added to each pot in such a quantity as to germinate the seeds. The pots were divided into two groups, each containing 5 pots for each weed or crop. Fifteen days after sowing (ten, in the case of wheat), when the weeds and crops, according to the species, were 10-15 cm high, the first set of pots was treated with a hydro-acetonic dispersion containing acetone at 10% in volume, the product under evaluation at the desired concentration and Tween 20 at 0.5%. The second set was treated with a hydro-acetonic solution only, containing acetone at 10% in volume and Tween 20 at 0.5%, and was used as comparison (blank). All pots were kept under observation in a conditioned environment under the following conditions: temperature: 24° C.; relative humidity: 60%; photo-period: 16 ore; light intensity: 10000 lux. The pots were uniformly watered every other day so as to ensure a humidity degree sufficient for a good development of the plants.
# Amaranthus retroflexus [11] = experiment: Herbicidal activity in post-emergence
# Method: as §2
# Chenopodium album [12] = experiment: Herbicidal activity in post-emergence
# Method: as §2
# Convolvulus sepium [13] = experiment: Herbicidal activity in post-emergence
# Method: as §2
# Galium aparine [14] = experiment: Herbicidal activity in post-emergence
# Method: as §2
# Ipomea purpurea [15] = experiment: Herbicidal activity in post-emergence
# Method: as §2
# Portulaca oleracea [16] = experiment: Herbicidal activity in post-emergence
# Method: as §2
# Sida spinosa [17] = experiment: Herbicidal activity in post-emergence
# Method: as §2
# Solanum nigrum [18] = experiment: Herbicidal activity in post-emergence
# Method: as §2
compound,measurement,setting,value
"COC(=O)/C=C(\COc1cc(-n2c(=O)cc(C(F)(F)F)n(C)c2=O)c(F)cc1Cl)OC [Compound No 2, methyl (2E)-4-{2-chloro-4-fluoro-5-[1,2,3,6-tetrahydro-3-methyl-2,6-dioxo-4-(trifluoromethyl)pyrimidin-1-yl]phenoxy}-3-methoxybut-2-enoate]","Herbicidal activity in pre-emergence, AT",Abutilon theofrasti [1],5 (5=91% damage—death of the plant)
same,"Herbicidal activity in pre-emergence, AR",Amaranthus retroflexus [2],5 (5=91% damage—death of the plant)
same,"Herbicidal activity in pre-emergence, CA",Chenopodium album [3],5 (5=91% damage—death of the plant)
same,"Herbicidal activity in pre-emergence, CS",Convolvulus sepium [4],5 (5=91% damage—death of the plant)
same,"Herbicidal activity in pre-emergence, GA",Galium aparine [5],5 (5=91% damage—death of the plant)
same,"Herbicidal activity in pre-emergence, IP",Ipomea purpurea [6],5 (5=91% damage—death of the plant)
same,"Herbicidal activity in pre-emergence, PO",Portulaca oleracea [7],5 (5=91% damage—death of the plant)
same,"Herbicidal activity in pre-emergence, SS",Sida spinosa [8],5 (5=91% damage—death of the plant)
same,"Herbicidal activity in pre-emergence, SN",Solanum nigrum [9],5 (5=91% damage—death of the plant)
same,"Herbicidal activity in post-emergence, AT",Abutilon theofrasti [10],5 (5=91% damage—death of the plant)
same,"Herbicidal activity in post-emergence, AR",Amaranthus retroflexus [11],5 (5=91% damage—death of the plant)
same,"Herbicidal activity in post-emergence, CA",Chenopodium album [12],5 (5=91% damage—death of the plant)
same,"Herbicidal activity in post-emergence, CS",Convolvulus sepium [13],5 (5=91% damage—death of the plant)
same,"Herbicidal activity in post-emergence, GA",Galium aparine [14],5 (5=91% damage—death of the plant)
same,"Herbicidal activity in post-emergence, IP",Ipomea purpurea [15],5 (5=91% damage—death of the plant)
same,"Herbicidal activity in post-emergence, PO",Portulaca oleracea [16],4 (4=71-90% damage)
same,"Herbicidal activity in post-emergence, SS",Sida spinosa [17],5 (5=91% damage—death of the plant)
same,"Herbicidal activity in post-emergence, SN",Solanum nigrum [18],5 (5=91% damage—death of the plant)
